# ChEMBL document CHEMBL4627308, “Identification of C10 nitrogen-containing aporphines with dopamine D1 versus D5 receptor selectivity” (Bioorg Med Chem Lett, 2020)
# Tests used:
# [1] = target: T1, 5-hydroxytryptamine receptor 1A (Homo sapiens) (UniProt P08908); test: Inhibition of human 5HT1A receptor relative to control; design: concentration or dose not given beside the values; settings: concentration not given here
# T1 sequence (whole entry): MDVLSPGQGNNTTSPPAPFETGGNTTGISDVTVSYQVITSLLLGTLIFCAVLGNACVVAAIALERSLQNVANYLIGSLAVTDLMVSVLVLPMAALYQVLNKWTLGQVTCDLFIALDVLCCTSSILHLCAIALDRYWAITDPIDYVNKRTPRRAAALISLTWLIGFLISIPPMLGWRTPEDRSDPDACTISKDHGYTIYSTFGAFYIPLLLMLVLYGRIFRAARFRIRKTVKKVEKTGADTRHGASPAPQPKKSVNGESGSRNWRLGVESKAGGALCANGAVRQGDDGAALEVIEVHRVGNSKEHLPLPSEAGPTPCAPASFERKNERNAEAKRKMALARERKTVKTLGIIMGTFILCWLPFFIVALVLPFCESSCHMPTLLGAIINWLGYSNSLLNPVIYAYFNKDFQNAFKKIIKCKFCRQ
# [2] = target: T2, 5-hydroxytryptamine receptor 2A (Homo sapiens, UniProt P28223); test: Inhibition of human 5HT2A receptor relative to control; design: concentration or dose not given beside the values; settings: concentration not given here
# D(2) dopamine receptor [3] = target: T3, D(2) dopamine receptor (Homo sapiens, UniProt P14416); test: Binding affinity to human D2 receptor
# D(1A) dopamine receptor [4] = target: T4, D(1A) dopamine receptor (Homo sapiens, UniProt P21728); test: Binding affinity to human D1 receptor
# [5] = target: D(1B) dopamine receptor (Homo sapiens) (UniProt P21918); test: Inhibition of human D5 receptor relative to control; design: concentration or dose not given beside the values; settings: concentration not given here
# [6] = target: T5, 5-hydroxytryptamine receptor 1A (Homo sapiens, UniProt P08908); test: Binding affinity to human 5HT1A receptor
# T5 sequence (P08908 whole entry): T1 sequence (whole entry)
# D(2) dopamine receptor [7] = target: T3, D(2) dopamine receptor; test: Inhibition of human D2 receptor relative to control; design: concentration or dose not given beside the values; settings: concentration not given here
# D(1A) dopamine receptor [8] = target: T4, D(1A) dopamine receptor; test: Inhibition of human D1 receptor relative to control; design: concentration or dose not given beside the values; settings: concentration not given here
# [9] = target: T2, 5-hydroxytryptamine receptor 2A
# Description: Binding affinity to human 5HT2A receptor
# [10] = Microsomal stability in human liver microsomes assessed as parent compound remaining measured after 60 mins; assay type: ADME, Microsome; settings: 1 h
# [11] = Microsomal stability in human liver microsomes assessed as parent compound remaining measured after 120 mins; assay type: ADME, Microsome; settings: 2 h
# [12] = Microsomal stability in human liver microsomes assessed as parent compound remaining measured after 30 mins; assay type: ADME, Microsome; settings: 0.5 h
# [13] = Microsomal stability in human liver microsomes assessed as parent compound remaining measured after 15 mins; assay type: ADME, Microsome; settings: 0.25 h
# [14] = Microsomal stability in human liver microsomes assessed as parent compound remaining measured immediately; assay type: ADME, Microsome
# Chain of D(1B) dopamine receptor (Homo sapiens) (P21918 whole entry): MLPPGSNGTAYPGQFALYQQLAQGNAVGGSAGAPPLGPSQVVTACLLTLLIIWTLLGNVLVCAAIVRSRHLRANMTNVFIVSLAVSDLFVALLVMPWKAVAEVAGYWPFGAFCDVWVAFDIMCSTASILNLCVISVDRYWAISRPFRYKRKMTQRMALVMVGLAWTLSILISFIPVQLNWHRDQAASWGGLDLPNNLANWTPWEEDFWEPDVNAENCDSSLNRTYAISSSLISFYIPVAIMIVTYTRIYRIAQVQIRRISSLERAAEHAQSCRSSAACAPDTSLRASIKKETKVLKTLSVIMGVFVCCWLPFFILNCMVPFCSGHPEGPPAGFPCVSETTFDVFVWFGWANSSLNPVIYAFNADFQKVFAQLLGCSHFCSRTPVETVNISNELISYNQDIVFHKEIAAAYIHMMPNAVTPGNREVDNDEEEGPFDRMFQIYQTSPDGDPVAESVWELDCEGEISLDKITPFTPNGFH
# T2 sequence (P28223 whole entry): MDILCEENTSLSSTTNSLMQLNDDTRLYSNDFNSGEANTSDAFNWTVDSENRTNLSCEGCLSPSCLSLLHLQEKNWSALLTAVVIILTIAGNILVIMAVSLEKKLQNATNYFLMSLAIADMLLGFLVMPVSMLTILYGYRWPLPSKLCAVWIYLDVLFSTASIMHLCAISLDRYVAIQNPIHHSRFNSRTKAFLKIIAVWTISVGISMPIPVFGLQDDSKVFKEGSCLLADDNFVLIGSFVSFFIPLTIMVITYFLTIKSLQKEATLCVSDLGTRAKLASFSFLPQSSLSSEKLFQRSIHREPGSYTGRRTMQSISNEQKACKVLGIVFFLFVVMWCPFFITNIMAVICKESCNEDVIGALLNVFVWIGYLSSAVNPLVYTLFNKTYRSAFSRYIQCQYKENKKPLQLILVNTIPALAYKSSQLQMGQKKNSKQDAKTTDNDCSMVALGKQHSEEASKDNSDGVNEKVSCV
# T3 sequence (P14416 whole entry): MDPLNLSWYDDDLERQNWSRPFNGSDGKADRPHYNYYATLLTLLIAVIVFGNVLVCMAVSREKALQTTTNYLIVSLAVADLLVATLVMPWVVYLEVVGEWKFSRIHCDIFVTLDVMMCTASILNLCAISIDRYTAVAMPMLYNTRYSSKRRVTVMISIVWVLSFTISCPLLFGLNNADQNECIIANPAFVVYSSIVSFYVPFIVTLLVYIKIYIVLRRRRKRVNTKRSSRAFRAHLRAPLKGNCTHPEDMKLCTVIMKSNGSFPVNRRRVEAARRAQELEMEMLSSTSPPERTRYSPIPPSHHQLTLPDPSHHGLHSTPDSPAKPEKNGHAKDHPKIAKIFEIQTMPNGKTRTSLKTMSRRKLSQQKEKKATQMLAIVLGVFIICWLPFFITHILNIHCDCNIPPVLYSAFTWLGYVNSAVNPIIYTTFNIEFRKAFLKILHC
# T4 sequence (P21728 whole entry): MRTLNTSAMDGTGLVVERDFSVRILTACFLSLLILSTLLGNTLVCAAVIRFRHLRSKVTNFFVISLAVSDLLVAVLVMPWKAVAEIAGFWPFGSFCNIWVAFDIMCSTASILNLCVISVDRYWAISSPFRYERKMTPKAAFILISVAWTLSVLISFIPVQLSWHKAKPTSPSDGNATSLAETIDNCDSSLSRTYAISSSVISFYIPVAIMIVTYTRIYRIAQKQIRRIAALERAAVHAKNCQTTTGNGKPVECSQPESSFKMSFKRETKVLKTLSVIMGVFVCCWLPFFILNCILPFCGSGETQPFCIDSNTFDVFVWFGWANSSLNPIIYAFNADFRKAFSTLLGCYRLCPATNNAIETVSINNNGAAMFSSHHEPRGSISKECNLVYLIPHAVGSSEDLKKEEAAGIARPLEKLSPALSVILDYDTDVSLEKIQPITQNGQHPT
Stability [10] [%],Stability [11] [%],Stability [12] [%],Stability [13] [%],Stability [14] [%],Structure (SMILES),inhibition [1] [%],inhibition [2] [%],Ki (D(2) dopamine receptor [3]) [nM],Ki (D(1A) dopamine receptor [4]) [nM],inhibition [5] [%],Ki [6] [nM],inhibition (D(2) dopamine receptor [7]) [%],inhibition (D(1A) dopamine receptor [8]) [%],Ki [9] [nM]
,,,,,COc1cc2c3c(c1OC)-c1cc(NC(C)=O)ccc1CC3N(C)CC2 (stereo not drawn),< 50,< 50,978,756,< 50,,,,
,,,,,CN1CCc2cccc3c2C1Cc1ccc([N+](=O)[O-])cc1-3 (stereo not drawn),,< 50,,928,< 50,100,< 50,,
,,,,,CCCC(=O)Nc1ccc2c(c1)-c1cccc3c1C(C2)N(C)CC3 (stereo not drawn),,< 50,,,< 50,83,< 50,< 50,
,,,,,C=CCOc1c(OC)cc2c3c1-c1cc(NC(C)=O)ccc1CC3N(C)CC2 (stereo not drawn),< 50,,,155,< 50,,< 50,,1220
,,,,,C=CCOc1c(OC)cc2c3c1-c1cc(N)ccc1CC3N(C)CC2 (stereo not drawn),< 50,,759,830,< 50,,,,234
95.6,102.69,97.8,99.76,100,C#CCOc1c(OC)cc2c3c1-c1cc(NC(C)=O)ccc1CC3N(C)CC2 (stereo not drawn),< 50,,854,58,< 50,,,,1270
,,,,,C#CCOc1c(OC)cc2c3c1-c1cc([N+](=O)[O-])ccc1CC3N(C)CC2 (stereo not drawn),,< 50,2050,536,< 50,206,,,
,,,,,C=CCOc1c(OC)cc2c3c1-c1cc([N+](=O)[O-])ccc1CC3N(C)CC2 (stereo not drawn),,< 50,,,< 50,1680,< 50,< 50,
,,,,,COc1cc2c3c(c1OC)-c1cc(N)ccc1CC3N(C)CC2 (stereo not drawn),,,260,691,< 50,156,,,585
,,,,,O=[N+]([O-])c1ccc2c(c1)-c1cccc3c1C(C2)NCC3 (stereo not drawn),,< 50,,,< 50,350,< 50,< 50,
,,,,,COc1cc2c3c(c1OC1CC1)-c1cc(N)ccc1CC3N(C)CC2 (stereo not drawn),< 50,,963,1110,< 50,,,,110
,,,,,C#CCOc1c(OC)cc2c3c1-c1cc(N)ccc1CC3N(C)CC2 (stereo not drawn),,,431,709,< 50,428,,,378
,,,,,COc1cc2c3c(c1O)-c1cc(N)ccc1CC3N(C)CC2 (stereo not drawn),< 50,,,301,,,,,850
,,,,,COc1cc2c3c(c1O)-c1cc([N+](=O)[O-])ccc1CC3N(C)CC2 (stereo not drawn),,,320,316,< 50,548,,,908
,,,,,CN1CCc2cccc3c2C1Cc1ccc(N)cc1-3 (stereo not drawn),,,679,,< 50,269,,< 50,672
,,,,,CC(=O)Nc1ccc2c(c1)-c1cccc3c1C(C2)N(C)CC3 (stereo not drawn),,,,,< 50,93,< 50,< 50,1060
80.43,36.68,99.73,89.33,100,CN1CCc2cccc3c2[C@H]1Cc1ccc(O)c(O)c1-3 [APOMORPHINE],,,,,,,,,
,,,,,COc1cc2c3c(c1OC1CC1)-c1cc([N+](=O)[O-])ccc1CC3N(C)CC2 (stereo not drawn),,< 50,,,< 50,439,< 50,< 50,
,,,,,COc1cc2c3c(c1OC)-c1cc([N+](=O)[O-])ccc1CC3N(C)CC2 (stereo not drawn),,,478,726,< 50,458,,,1350

Structure (SMILES),Stability [10] [%],Stability [11] [%],Stability [12] [%],Stability [13] [%],Stability [14] [%],inhibition [1] [%],inhibition [2] [%],Ki (D(2) dopamine receptor [3]) [nM],Ki (D(1A) dopamine receptor [4]) [nM],inhibition [5] [%],Ki [6] [nM],inhibition (D(2) dopamine receptor [7]) [%],inhibition (D(1A) dopamine receptor [8]) [%],Ki [9] [nM]
CC(C)[N+](C)(CCOC(=O)C1c2ccccc2Oc2ccccc21)C(C)C [PROPANTHELINE],6.4,0.16,36.32,65.33,100,,,,,,,,,
